Assay results published in paper PMC5502072 (Investigational New Drugs, 2017).
“Also recorded” adds a separate entry of the source. Like-named read-outs stand apart in the source and are kept apart here.

Experiments:
[1] = system: lung squamous cell carcinoma; urothelial carcinoma with FGFR3 alterations; conditions: cited from earlier work
advanced solid tumors = conditions: all responders had FGFR2 or FGFR3 translocations; cited from earlier work
several tumour types = conditions: cited from earlier work
advanced solid tumours = test: Preliminary antitumour efficacy (RECIST v1.1); type: in vivo, human
Description: Tumour assessments were performed according to Response Evaluation Criteria in Solid Tumors version 1.1 (RECIST v1.1) at baseline, on day 21 of the first treatment cycle, then every 6 weeks after the start of treatment for 12 weeks, and thereafter every 12 weeks (±1 week) until discontinuation of study treatment or withdrawal of consent.

[2] = previously treated advanced/metastatic UC with FGFR3 alterations
[3] = one patient with FGFR1-amplified squamous NSCLC, 80 mg bid

CCN1CCN(c2ccc(Nc3cc(N(C)C(=O)Nc4c(Cl)c(OC)cc(OC)c4Cl)ncn3)cc2)CC1 [BGJ398]
Patients with PR ([1]; lung squamous cell carcinoma, selected by FGFR amplification status): 2/17 | Complete response [1, 2]: one unconfirmed complete response | Patients with PR [1, 2]: 8/25

COc1cc(OC)cc(N(CCNC(C)C)c2ccc3ncc(-c4cnn(C)c4)nc3c2)c1 [JNJ-42756493]
Patients with PR (advanced solid tumors): 4/23

AZD4547
Patients with stable disease (several tumour types; 4/21 additional patients): 19% | Best response (several tumour types; [3]): partial response | Duration of PR (several tumour types; [3]): ≥ 12 weeks | Patients with stable disease (≥4 weeks' duration) (advanced solid tumours; Part A): 70% | Patients with stable disease ≥4 weeks (advanced solid tumours; Part A): 21/30 | Range of percentage change in the sum of the diameters of target lesions (advanced solid tumours; Part A): –6.8% to 48.9 | Median percentage change in the sum of the diameters of target lesions (advanced solid tumours; Part A (25/30 patients)): 5.9% | Patients with stable disease (≥4 weeks' duration) (advanced solid tumours; Part A, 40 mg bid): 3 n | Patients with stable disease (≥4 weeks' duration) (advanced solid tumours; Part A, 80 mg bid): 3 n | Patients with stable disease (≥4 weeks' duration) (advanced solid tumours; Part A, 120 mg bid): 5 n | Patients with stable disease (≥4 weeks' duration) (advanced solid tumours; Part A, 160 mg qd): 10 n | Range of percentage change in the sum of the diameters of target lesions (advanced solid tumours; Part B): –16.3% to 23.4 | Median percentage change in the sum of the diameters of target lesions (advanced solid tumours; Part B (all patients)): 3.0% | Patients continuing to experience stable disease at 10 weeks (advanced solid tumours; Part B, 80 mg bid): 25.0% | Patients with stable disease ≥10 weeks (advanced solid tumours; Part B, 80 mg bid): 1/4 | Complete responses and partial responses (RECIST v1.1) (advanced solid tumours; Parts A and B): No complete or partial responses were observed; also recorded: not observed
